1 compound from patent US20240400549A1, “COMPOUNDS AND THEIR USES FOR TREATING NEURODEGENERATIVE DISEASE” (Academia Sinica, priority 2021, published 2024) can be followed below.

One experiment deals with T1, eGFP-C-TDP-43 (Homo sapiens, UniProt Q13148).
T1 construct: expressed in transfected cells; host or cells: Neuro-2a (mouse neuroblastoma)
Description: SDS-PAGE dose dependency of eGFP-C-TDP-43 degradation. The format is cell-based, mouse. The following applies: Neuro-2a cells. On the procedure: Proteins were separated using 12% Tris-glycine SDS-PAGE. Proteins were transferred onto PVDF membrane (Millipore). Blots were blocked with 5% bovine serum albumin (BSA, Sigma) in 0.1% PBST for at least 1 hour. After blocking, blots were subjected to incubation with the primary antibodies TDP-43 (C-terminal) (1:1,000, Proteintech), TDP-43 (1:1,000, Abcam), p-TDP-43 (pS409/410) (1:1,000, Cosmo Bio), GFP (1:1,000, Abcam), All (1:1,000, Invitrogen), GAPDH (1:10,000, GeneTex), or β-actin (1:10,000, GeneTex) in 2% BSA and incubated overnight at 4° C. on a shaker. After washed with PBST, the blots were further incubated with HRP-labelled secondary antibodies (1:3,000, GeneTex) at room temperature for another 1 hour. The blots were washed and developed with electrochemiluminescence (ECL, Millipore). The signals were visualized with luminescence (iBright™ FL1000 instrument, Invitrogen).
Based on the amount of j-actin (internal control) on NC membrane, overexpression of eGFP-C-TDP-43 did induce a significant amount of C-TDP-43 species (mock control, 1.08±0.31, the black bar in FIG. 1, (B)) comparing with that in blank control of Neuro-2a cells (0.38±0.08, the white bar in FIG. 1, (B)). […]

For experiment [1], the system named is C-TDP-43 expressed Neuro-2a cells. Description: AlamarBlue cell viability in C-TDP-43 expressed Neuro-2a cells. The following applies: 5 μM; eGFP-C-TDP-43 overexpressing Neuro-2a cells; mock 0.43±0.04 vs blank control 1±0.03. In kind it is cell-based, mouse. As for the experimental part: Neuro-2a cells were seeded in a 24-well plate at a concentration of 8×10^4 cells/well and incubated overnight. The attached Neuro-2a cells were then transfected with the eGFP-C-TDP-43 plasmid (1.1 μg) using TurboFect™ transfection reagent (Invitrogen) according to manufacturer's recommendations, and treated with or without 5 μM test compound after 2 h transfection. The cell viability indicator, AlamarBlue (Invitrogen), was added after 42 h of incubation, and the mixture was incubated for another 6 h. […] conditional medium was transferred to a 96-well plate, and cell viability was determined by the increased fluorescence intensity (λex=560 nm, λem=590 nm).
In this example, whether the compounds of formula (I) or (II) could relieve C-TDP-43-mediated cytotoxicity was examined.
On the technique in general: Resazurin is reduced to fluorescent resorufin, in cell work by metabolically active cells.

The next experiment deals with T2, YFP—C-TDP-43 aggregates (Homo sapiens, UniProt Q13148).
T2 construct: IW33 [Psnb-l:C-TDP-43219-414-YFP (iwIs22)]; expressed in transfected cells; host or cells: transgenic C. elegans strain IW33 (pan-neuronal snb-1 promoter)
Put plainly: YFP-C-TDP-43 aggregates in transgenic C. elegans (confocal imaging). In kind it is in vivo. Conditions: 5 μM I-1b; compared to DMSO control or MG132-treated group. As for the experimental part: The YFP—C-TDP-43 transgenic strains of C. elegans generated in this study were IW33 [Psnb-l:C-TDP-43219-414-YFP (iwIs22)]. The strains of nematodes were maintained with standard procedure and grown at 20° C. as previously described (Zhang, T. et al. Hum. Mol. Genet. 2011, 20 (10), 1952). For all assays, the transgenic young two-day (80 hours) adults were used. For larvae synchronization, the eggs were isolated by lysing gravid adult worms with freshly prepared bleaching solution (0.5 mL 5 M NaOH with 1 mL bleach) and incubated in S buffer (recipe) for overnight. For drug treatments, compound I-1b and/or DMSO were solely or along with MG132 applied to fresh NGM plates prior to installing the synchronized C. elegans. The body bends of the corresponding treatment in a duration of 30 seconds of the various strains were documented through SMZ800N stereomicroscope equipped with a CCD camera (Nikon). A body bend was counted as the head of C. elegans travels across the mid-body in 1×PBS buffer. Then, the bending videos of C. elegans were analyzed by ImageJ with the wrMTrck plugin (Nussbaum-Krammer, C. I. et al. J. Vis. Exp. 2015, (95), 52321). […]
As YFP—C-TDP-43 readily forms cytosolic aggregates in nervous system, the YFP—C-TDP-43 aggregates both in the neuron processes and neuron bodies of the ventral cord were monitored. […]

T1 sequence (Q13148 208-414 limits assumed): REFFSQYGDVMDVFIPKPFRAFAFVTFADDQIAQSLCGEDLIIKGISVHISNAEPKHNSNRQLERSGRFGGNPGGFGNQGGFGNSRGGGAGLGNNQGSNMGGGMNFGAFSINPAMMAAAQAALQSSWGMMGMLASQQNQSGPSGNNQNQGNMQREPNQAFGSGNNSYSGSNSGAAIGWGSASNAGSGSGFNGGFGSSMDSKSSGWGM
T2 sequence (Q13148 219-414 limits assumed): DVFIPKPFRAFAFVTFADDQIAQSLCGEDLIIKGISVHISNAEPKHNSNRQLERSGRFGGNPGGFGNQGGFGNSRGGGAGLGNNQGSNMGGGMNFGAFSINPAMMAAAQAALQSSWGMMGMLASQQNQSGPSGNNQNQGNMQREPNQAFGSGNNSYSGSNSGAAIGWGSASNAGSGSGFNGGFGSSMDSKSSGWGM

With `CN(C)c1ccc(-c2nc3ccc(OCCOCCOCCNc4cccc5c4C(=O)N(C4CCC(=O)NC4=O)C5=O)cc3s2)cc1` (stereo not drawn) [I-1b, 4-((2-(2-(2-((2-(4-(dimethylamino)phenyl)benzo[d]thiazol-6-yl)oxy)ethoxy)ethoxy)ethyl)amino)-2-(2,6-dioxopiperidin-3-yl)isoindoline-1,3-dione], the “degradation of eGFP-C-TDP-43, dose dependency” value on eGFP-C-TDP-43 is “degraded eGFP-C-TDP-43 in a dose-dependent manner”. Also, in experiment [1], the cell viability is reported as 0.56±0.04. Besides, the “YFP—C-TDP-43 aggregates in neuron processes and neuron bodies of the ventral cord” value on YFP—C-TDP-43 aggregates is on record as “fewer aggregates with reduced fluorescence intensity”.
